Tests used:
Aphis gossypii = experiment: Test Example 2: foot drench of cucumber seedling, then inoculation with Aphis gossypii; assay type: in vivo; conditions: 500 ppm, 5 ml drenched at foot of cucumber seedling, 7 days then inoculation, further 6 days
Procedure: On the other hand, a cucumber seedling (the second true leaf stage) planted in a plastic cup was drenched at its foot with 5 ml of the test drug solution, and kept in a greenhouse at 25° C. for 7 days. On the cucumber leaf surface was inoculated 30 Aphis gossypii (whole stage), and further kept in the greenhouse for 6 days, then the number of surviving Aphis gossypii parasitized on the leaves of the cucumber was examined, and the controlling value was calculated according to the following equation: Controlling value (%)={1−(Cb×Tai)/(Cai×Tb)}×100 wherein the symbols represent as follows: Cb: the number of insects in a non-treated section before treatment, Cai: the number of insects in a non-treated section on observation, Tb: the number of insects in a treated section before treatment, Tai: the number of insects in a treated section on observation, wherein the non-treated section refers to a section where the test drug solution prepared by diluting the formulation not containing the compound of the present invention as in Formulation Example 5 with the same amount of water as in the treated section was sprayed.

[1] = tested on: Haemaphysalis longicornis; experiment: Test Example 11: coated screw tube contact test, Haemaphysalis longicornis nymphal ticks; assay type: in vivo; conditions: 48 h, 2 mg compound in 0.2 mL acetone coated on inner wall of screw tube, after 2 days, read-out: death rate
Procedure: 2 mg of each of Compounds of Present Invention 6, 8, 10, 26, 28, 29, 33, 35 and 37 was weighed in a screw tube (Maruemu No. 5; 27×55 mm), and 0.2 mL of acetone was added thereto and sealed with a cap to dissolve the compound. The screw tube was rotated and inverted to uniformity coat the drug solution onto the whole inner wall of the tube. After removing the cap, the solution was air-dried for about 2 hours, then non-blood-sucking nymphal ticks, Haemaphysalis longicornis (5 ticks/group) were released, and the tube was sealed with the cap. After 2 days, the number of dead ticks was examined, and the death rate was calculated according to the following equation: Death rate (%)=100×(Number of dead ticks/Number of tested ticks).

SMILES | controlling value (Aphis gossypii) [%] | pest or weed control at 2 mg/tube [1] [%]
CCS(=O)(=O)c1ccccc1-c1cnc2nc(C(F)(F)F)cn2c1 | ≥ 90 | –
CCSc1ccccc1-c1cnc2nc(C(F)(F)F)cn2c1 [Compound of Present Invention 35, 6-(2-ethylsulfanylphenyl)-2-trifluoromethylimidazo[1,2-a]pyrimidine] | – | 100
CCSc1ccccc1-c1ccc2nc(C(F)(F)F)cn2c1 [Compound of Present Invention 26, 6-(2-ethylsulfanylphenyl)-2-trifluoromethylimidazo[1,2-a]pyridine] | – | 100
CCCNc1nc(-c2ccccc2SCC)nc2cc(C(F)(F)F)ccc12 [Compound of Present Invention 8, 2-(2-ethylsulfanylphenyl)-4-propylamino-7-trifluoromethylquinazoline] | – | 100
CCSc1ccccc1-c1ccn2cc(C(F)(F)F)nc2c1 [Compound of Present Invention 37, 7-(2-ethylsulfanylphenyl)-2-trifluoromethylimidazo[1,2-a]pyridine] | – | 100
CCSc1ccccc1-c1ccc2nc(C(F)(F)C(F)(F)F)cn2c1C [Compound of Present Invention 29, 6-(2-ethylsulfanylphenyl)-5-methyl-2-pentafluoroethylimidazo[1,2-a]pyridine] | – | 100
CCSc1ccccc1-c1ccc2nc(C(F)(F)F)cn2c1C [Compound of Present Invention 28, 6-(2-ethylsulfanylphenyl)-5-methyl-2-trifluoromethylimidazo [1,2-a]pyridine] | – | 100
CCCNc1nc(-c2ccccc2S(=O)(=O)CC)nc2cc(C(F)(F)F)ccc12 [Compound of Present Invention 10, 2-(2-ethylsulfonylphenyl)-4-propylamino-7-trifluoromethylquinazoline] | – | 100
CCSc1ccccc1-c1ccc2nc(C(F)(F)F)cn2n1 [Compound of Present Invention 33, 6-(2-ethylsulfanylphenyl)-2-trifluoromethylimidazo[1,2-b]pyridine] | – | 100

— patent US9260436B2 (Sumitomo Chemical Company, Limited, priority 2012, dated 2016)
